Our source for the IC50 values is patent US20240409585A1, “MACROCYCLIC IMMUNOMODULATORS” (priority 2021, published 2024).

In assay [1] the target is T1, PE-labeled human PD-L1-Ig binding to Jurkat cell line over-expressing human PD-1 (Jurkat-PD-1) (Homo sapiens, UniProt Q15116).
T1 construct: expressed in transfected cells; host or cells: Jurkat
Kind of assay: Jurkat-PD-1 Cell Binding High-Content Screening Assay (CBA): Method 1. As to conditions: Jurkat-PD-1 cells, PE-labeled PD-L1-Ig; μM; read-out: CBA Method 1 μM.
Protocol: Phycoerythrin (PE) was covalently linked to the Ig epitope tag of human PD-L1-Ig and fluorescently-labeled PD-L1-Ig was used for binding studies with a Jurkat cell line over-expressing human PD-1 (Jurkat-PD-1). Briefly, 8×10^3 Jurkat-hPD-1 cells were seeded into 384 well plates in 20 μl of DMEM supplemented with 10% fetal calf serum. 100 nl of compound was added to cells followed by incubation at 37° C. for 2 hours. Then, 5 μl of PE-labeled PD-L1-Ig (20 nM final), diluted in DMEM supplemented with 10% fetal calf serum. […] Data was collected and processed using a Cell Insight NXT High Content Imager and associated software.

The target in assay [2] is T1, PE-labeled human PD-L1-Ig binding to Jurkat cell line over-expressing human PD-1 (Jurkat-PD-1). The assay can be described thus: Jurkat-PD-1 Cell Binding High-Content Screening Assay (CBA): Method 2 (presence and absence of tween-20). The settings on record: Jurkat-PD-1 cells, PE-labeled PD-L1-Ig 20 nM; presence or absence of tween-20 not given; head μM; read-out: CBA Method 2 μM. The gist of the method:
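Compounds incubated with Jurkat cells overexpressing human PD-1 for 2 h at 37° C, tested with and without tween-20 to flag aggregation. PE-labeled human PD-L1-Ig (20 nM final) added in DMEM/10% FCS; binding read by high-content imaging.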

Numbered stars: 1 amine (or outer) side, 2 acyl side, 3 side chain; on linkers, the order of the positions; unused ones are H or OH. Bridge positions count the residues as written; N and C are the ends. Square brackets hold non-standard residues; d marks the D form. Peptide text beside a SMILES is read from it. * marks the point of attachment. Bip(4'-COOH) = N[C@@H](Cc1ccc(-c2ccc(C(=O)O)cc2)cc1)C(=O)O; Bip(4'-NHAc) = CC(=O)Nc1ccc(-c2ccc(C[C@H](N)C(=O)O)cc2)cc1; X7 = O=C(C[C@H](N[*:1])C(=O)[*:2])NS(=O)(=O)c1ccccc1F; Phe(3,4-Cl2) = N[C@@H](Cc1ccc(Cl)c(Cl)c1)C(=O)O; Phe(3-CF3) = N[C@@H](Cc1cccc(C(F)(F)F)c1)C(=O)O; Ala(morpholin-4-yl) = N[C@@H](CN1CCOCC1)C(=O)O; Phe(3-COOH) = N[C@@H](Cc1cccc(C(=O)O)c1)C(=O)O; Phe(4-CONH2) = NC(=O)c1ccc(C[C@H](N)C(=O)O)cc1; Phe(4-COOH) = N[C@@H](Cc1ccc(C(=O)O)cc1)C(=O)O; Phe(2,4-Cl2) = N[C@@H](Cc1ccc(Cl)cc1Cl)C(=O)O; Bip = N[C@@H](Cc1ccc(-c2ccccc2)cc1)C(=O)O; Phe(3-I) = N[C@@H](Cc1cccc(I)c1)C(=O)O; Phe(3-Me) = Cc1cccc(C[C@H](N)C(=O)O)c1; Val(3-OH) = CC(C)(O)[C@H](N)C(=O)O; Malonyl = O=C(CC(=O)[*:2])[*:1]; Cha = N[C@@H](CC1CCCCC1)C(=O)O; Carboxymethyl = O=C(O)C*; NMeA = CN[C@@H](C)C(=O)O; Nle = CCCC[C@H](N)C(=O)O; Orn = NCCC[C@H](N)C(=O)O; Dab = NCC[C@H](N)C(=O)O

T1 sequence (Q15116 25-288): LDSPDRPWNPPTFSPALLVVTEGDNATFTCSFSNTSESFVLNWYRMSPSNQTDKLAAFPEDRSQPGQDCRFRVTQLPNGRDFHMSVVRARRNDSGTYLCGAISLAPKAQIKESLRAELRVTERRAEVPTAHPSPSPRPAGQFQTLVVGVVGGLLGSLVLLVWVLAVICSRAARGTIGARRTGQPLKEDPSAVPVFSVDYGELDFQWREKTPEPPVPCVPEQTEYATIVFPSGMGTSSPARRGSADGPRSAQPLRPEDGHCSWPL

As for `COC[C@@H]1NC(=O)CSC[C@@H](C(=O)N[C@@H](CCN)C(N)=O)NC(=O)[C@H](CCCN)NC(=O)[C@H](C(C)C)NC(=O)[C@H](CC2CCCCC2)NC(=O)[C@H](CCN)NC(=O)[C@@H](CC(C)C)NC(=O)[C@H](C)N(C)C(=O)[C@H](CCC(N)=O)NC(=O)[C@H](Cc2ccc(-c3ccccc3)cc2)NC(=O)[C@H](Cc2ccc(-c3ccc(NC(C)=O)cc3)cc2)NC(=O)[C@H](Cc2cccc(C)c2)NC(=O)[C@H](CC(=O)O)NC(=O)[C@H](Cc2ccc(OCC(=O)O)cc2)NC1=O` [Example 5056] ({CH2CO}-S(Me)Y(Carboxymethyl)D[Phe(3-Me)][Bip(4'-NHAc)][Bip]Q[NMeA][dL][Dab][Cha]V[Orn]C[Dab]-NH2; thioether N-14), the IC50 in assay [1] is 0.01 µM; in assay [2], 0.0095 µM.

As to `CC(=O)Nc1ccc(-c2ccc(C[C@@H]3NC(=O)[C@H](Cc4cccc(C(F)(F)F)c4)NC(=O)[C@H](CC(=O)O)NC(=O)[C@H](Cc4ccc(C(=O)O)cc4)NC(=O)[C@H](CC(C)C)NC(=O)CSC[C@@H](C(=O)N[C@@H](CCN)C(N)=O)NC(=O)[C@H](CCCN)NC(=O)[C@H](C(C)C)NC(=O)[C@H](CC4CCCCC4)NC(=O)[C@H](CCN)NC(=O)[C@@H](CC(C)C)NC(=O)[C@H](C)N(C)C(=O)[C@H](CCC(N)=O)NC(=O)[C@H](Cc4ccc(-c5ccccc5)cc4)NC3=O)cc2)cc1` [Example 5053] ({CH2CO}-L[Phe(4-COOH)]D[Phe(3-CF3)][Bip(4'-NHAc)][Bip]Q[NMeA][dL][Dab][Cha]V[Orn]C[Dab]-NH2; thioether N-14), the IC50 in assay [1] came to 0.009 µM; in assay [2], 0.0074 µM.

Take `CC(C)C[C@@H]1NC(=O)[C@H](Cc2c[nH]c3ccccc23)NC(=O)[C@H](CC(N)=O)NC(=O)[C@H](Cc2cccc(C(=O)O)c2)NC(=O)[C@H](Cc2ccccc2)NC(=O)CSC[C@@H](C(=O)NCC(N)=O)NC(=O)[C@H](CO)NC(=O)[C@H](C(C)C)NC(=O)[C@H](CC(C)C)NC(=O)[C@H](CC(N)=O)NC(=O)[C@@H](CC(C)C)NC(=O)[C@H](C)N(C)C(=O)[C@H](C(C)C)NC(=O)[C@H](Cc2ccc(-c3ccccc3)cc2)NC1=O` [Example 5026] ({CH2CO}-F[Phe(3-COOH)]NWL[Bip]V[NMeA][dL]NLVSCG-NH2; thioether N-14): the IC50 in assay [1] and in assay [2] was 0.12 µM each time.

On to `CCCC[C@@H]1NC(=O)CSC[C@@H](C(=O)N[C@@H](CCN)C(N)=O)NC(=O)[C@H](CO)NC(=O)[C@H](C(C)(C)O)NC(=O)[C@H](CC2CCCCC2)NC(=O)[C@H](CCN)NC(=O)[C@@H](CC(C)C)NC(=O)[C@H](C)N(C)C(=O)[C@H](Cc2ccc(C(N)=O)cc2)NC(=O)[C@H](Cc2ccc(-c3ccccc3)cc2)NC(=O)[C@H](Cc2ccc(OCC(=O)O)cc2)NC(=O)[C@H](Cc2cccc(C)c2)NC(=O)[C@H](CC(=O)O)NC(=O)[C@H](Cc2ccc(OCC(=O)O)cc2)NC1=O` [Example 5065] ({CH2CO}-[Nle]Y(Carboxymethyl)D[Phe(3-Me)]Y(Carboxymethyl)[Bip][Phe(4-CONH2)][NMeA][dL][Dab][Cha][Val(3-OH)]SC[Dab]-NH2; thioether N-14), for which the values for the IC50 in assay [1] and in assay [2] were 0.0077 µM and 0.006 µM, respectively.

Take `CC(C)C[C@H]1NC(=O)[C@H](C)N(C)C(=O)[C@H](CCC(N)=O)NC(=O)[C@H](Cc2ccc(-c3ccccc3)cc2)NC(=O)[C@H](Cc2ccc(C(=O)O)cc2)NC(=O)[C@H](Cc2cccc(C(F)(F)F)c2)NC(=O)[C@H](CC(=O)NS(=O)(=O)c2ccccc2F)NC(=O)[C@H](Cc2ccc(C(=O)O)cc2)NC(=O)[C@H](CN2CCOCC2)NC(=O)CSC[C@@H](C(=O)N[C@@H](CCN)C(N)=O)NC(=O)[C@H](CCCN)NC(=O)[C@H](C(C)C)NC(=O)[C@H](CC2CCCCC2)NC(=O)[C@H](CCN)NC1=O` [Example 5077] ({CH2CO}-[Ala(morpholin-4-yl)][Phe(4-COOH)][X7][Phe(3-CF3)][Phe(4-COOH)][Bip]Q[NMeA][dL][Dab][Cha]V[Orn]C[Dab]-NH2; thioether N-14): the IC50 in assay [1] worked out at 0.345 µM; in assay [2], 0.338 µM.

Take `CCCC[C@@H]1NC(=O)CSC[C@@H](C(=O)N[C@@H](CCN)C(N)=O)NC(=O)[C@H](CCC(=O)O)NC(=O)[C@H](C(C)C)NC(=O)[C@H](CC2CCCCC2)NC(=O)[C@H](CCN)NC(=O)[C@@H](CC(C)C)NC(=O)[C@H](C)N(C)C(=O)[C@H](Cc2ccc(OCC(=O)O)cc2)NC(=O)[C@H](Cc2ccc(-c3ccccc3)cc2)NC(=O)[C@H](Cc2ccc(OCC(=O)O)cc2)NC(=O)[C@H](Cc2cccc(C(F)(F)F)c2)NC(=O)[C@H](CC(=O)O)NC(=O)[C@H](Cc2ccc(-c3ccc(C(=O)O)cc3)cc2)NC1=O` [Example 5074] ({CH2CO}-[Nle][Bip(4'-COOH)]D[Phe(3-CF3)]Y(Carboxymethyl)[Bip]Y(Carboxymethyl)[NMeA][dL][Dab][Cha]VEC[Dab]-NH2; thioether N-14): the IC50 in assay [1] is 0.0401 µM; in assay [2], 0.0267 µM.

For the molecule `Cc1cccc(C[C@@H]2NC(=O)[C@H](CC(=O)O)NC(=O)[C@H](Cc3ccc(OCC(=O)O)cc3)NC(=O)[C@H](Cc3cccc(I)c3)NC(=O)CSC[C@@H](C(=O)N[C@@H](CCN)C(N)=O)NC(=O)[C@H](CCCN)NC(=O)[C@H](C(C)C)NC(=O)[C@H](CC3CCCCC3)NC(=O)[C@H](CCN)NC(=O)[C@@H](CC(C)C)NC(=O)[C@H](C)N(C)C(=O)[C@H](CCC(N)=O)NC(=O)[C@H](Cc3ccc(-c4ccccc4)cc3)NC(=O)[C@H](Cc3ccc(C(=O)O)cc3)NC2=O)c1` [Example 5036] ({CH2CO}-[Phe(3-I)]Y(Carboxymethyl)D[Phe(3-Me)][Phe(4-COOH)][Bip]Q[NMeA][dL][Dab][Cha]V[Orn]C[Dab]-NH2; thioether N-14), the IC50 was found to be 0.0045 µM in assay [1] and 0.0031 µM in assay [2].

Consider `Cc1cccc(C[C@@H]2NC(=O)[C@H](CC(=O)O)NC(=O)[C@H](Cc3ccc(OCC(=O)O)cc3)NC(=O)[C@H](CN3CCOCC3)NC(=O)CSC[C@@H](C(=O)N[C@@H](CCN)C(N)=O)NC(=O)[C@H](CCCN)NC(=O)[C@H](C(C)C)NC(=O)[C@H](Cc3ccc(Cl)c(Cl)c3)NC(=O)[C@H](CCN)NC(=O)[C@@H](CC(C)C)NC(=O)[C@H](C)N(C)C(=O)[C@H](CCC(N)=O)NC(=O)[C@H](Cc3ccc(-c4ccccc4)cc3)NC(=O)[C@H](Cc3ccc(C(=O)O)cc3)NC2=O)c1` [Example 5042] ({CH2CO}-[Ala(morpholin-4-yl)]Y(Carboxymethyl)D[Phe(3-Me)][Phe(4-COOH)][Bip]Q[NMeA][dL][Dab][Phe(3,4-Cl2)]V[Orn]C[Dab]-NH2; thioether N-14), for which the IC50 came out at 0.0639 µM in assay [1] and 0.0689 µM in assay [2].

`CC(=O)Nc1ccc(-c2ccc(C[C@@H]3NC(=O)[C@H](Cc4cccc(C(F)(F)F)c4)NC(=O)[C@H](CC(=O)O)NC(=O)[C@H](Cc4ccc(-c5ccc(C(=O)O)cc5)cc4)NC(=O)[C@H](CN4CCOCC4)NC(=O)CSC[C@@H](C(=O)N[C@@H](CCN)C(N)=O)NC(=O)[C@H](CCN)NC(=O)[C@H](C(C)C)NC(=O)[C@H](CC4CCCCC4)NC(=O)[C@H](CCN)NC(=O)[C@@H](CC(C)C)NC(=O)[C@H](C)N(C)C(=O)[C@H](CCCN)NC(=O)[C@H](Cc4ccc(-c5ccccc5)cc4)NC3=O)cc2)cc1` [Example 5091] ({CH2CO}-[Ala(morpholin-4-yl)][Bip(4'-COOH)]D[Phe(3-CF3)][Bip(4'-NHAc)][Bip][Orn][NMeA][dL][Dab][Cha]V[Dab]C[Dab]-NH2; thioether N-14): the IC50 came to 0.09 µM in assay [1] and 0.07 µM in assay [2].

Consider `CC(C)C[C@H]1NC(=O)[C@H](C)N(C)C(=O)[C@H](CCC(N)=O)NC(=O)[C@H](Cc2ccc(-c3ccccc3)cc2)NC(=O)[C@H](Cc2ccc(C(=O)O)cc2)NC(=O)[C@H](Cc2cccc(C(F)(F)F)c2)NC(=O)[C@H](CCNC(=O)CC(=O)O)NC(=O)[C@H](Cc2ccc(C(=O)O)cc2)NC(=O)[C@H](CN2CCOCC2)NC(=O)CSC[C@@H](C(=O)N[C@@H](CCN)C(N)=O)NC(=O)[C@H](CCCN)NC(=O)[C@H](C(C)C)NC(=O)[C@H](CC2CCCCC2)NC(=O)[C@H](CCN)NC1=O` [Example 5075] ({CH2CO}-[Ala(morpholin-4-yl)][Phe(4-COOH)][Dab](Malonyl)[Phe(3-CF3)][Phe(4-COOH)][Bip]Q[NMeA][dL][Dab][Cha]V[Orn]C[Dab]-NH2; thioether N-14), for which the IC50 was 0.128 µM in assay [1] and 0.372 µM in assay [2].

Consider `Cc1cccc(C[C@@H]2NC(=O)[C@H](CC(=O)O)NC(=O)[C@H](Cc3ccc(C(=O)O)cc3)NC(=O)[C@H](CC(C)C)NC(=O)CSC[C@@H](C(=O)N[C@@H](CCN)C(N)=O)NC(=O)[C@H](CCCN)NC(=O)[C@H](C(C)C)NC(=O)[C@H](CC3CCCCC3)NC(=O)[C@H](CCN)NC(=O)[C@@H](CC(C)C)NC(=O)[C@H](C)N(C)C(=O)[C@H](CCC(N)=O)NC(=O)[C@H](Cc3ccc(-c4ccccc4)cc3)NC(=O)[C@H](Cc3ccc(-c4ccc(C(=O)O)cc4)cc3)NC2=O)c1` [Example 5063] ({CH2CO}-L[Phe(4-COOH)]D[Phe(3-Me)][Bip(4'-COOH)][Bip]Q[NMeA][dL][Dab][Cha]V[Orn]C[Dab]-NH2; thioether N-14), for which the figures for the IC50 in assay [1] and in assay [2] were 0.0054 µM and 0.0052 µM, respectively.

Consider `Cc1cccc(C[C@@H]2NC(=O)[C@H](CC(=O)O)NC(=O)[C@H](Cc3ccc(OCC(=O)O)cc3)NC(=O)[C@H](CN3CCOCC3)NC(=O)CSC[C@@H](C(=O)N[C@@H](CCN)C(N)=O)NC(=O)[C@H](CCCN)NC(=O)[C@H](C(C)C)NC(=O)[C@H](Cc3ccc(Cl)cc3Cl)NC(=O)[C@H](CCN)NC(=O)[C@@H](CC(C)C)NC(=O)[C@H](C)N(C)C(=O)[C@H](CCC(N)=O)NC(=O)[C@H](Cc3ccc(-c4ccccc4)cc3)NC(=O)[C@H](Cc3ccc(C(=O)O)cc3)NC2=O)c1` [Example 5041] ({CH2CO}-[Ala(morpholin-4-yl)]Y(Carboxymethyl)D[Phe(3-Me)][Phe(4-COOH)][Bip]Q[NMeA][dL][Dab][Phe(2,4-Cl2)]V[Orn]C[Dab]-NH2; thioether N-14), for which the results for the IC50 in assay [1] and in assay [2] were 0.0888 µM and 0.0822 µM, respectively.
